The target of assay [1] is T1, system Xc^− (Homo sapiens, UniProt Q9UPY5).
T1 sequence (Q9UPY5 1-501): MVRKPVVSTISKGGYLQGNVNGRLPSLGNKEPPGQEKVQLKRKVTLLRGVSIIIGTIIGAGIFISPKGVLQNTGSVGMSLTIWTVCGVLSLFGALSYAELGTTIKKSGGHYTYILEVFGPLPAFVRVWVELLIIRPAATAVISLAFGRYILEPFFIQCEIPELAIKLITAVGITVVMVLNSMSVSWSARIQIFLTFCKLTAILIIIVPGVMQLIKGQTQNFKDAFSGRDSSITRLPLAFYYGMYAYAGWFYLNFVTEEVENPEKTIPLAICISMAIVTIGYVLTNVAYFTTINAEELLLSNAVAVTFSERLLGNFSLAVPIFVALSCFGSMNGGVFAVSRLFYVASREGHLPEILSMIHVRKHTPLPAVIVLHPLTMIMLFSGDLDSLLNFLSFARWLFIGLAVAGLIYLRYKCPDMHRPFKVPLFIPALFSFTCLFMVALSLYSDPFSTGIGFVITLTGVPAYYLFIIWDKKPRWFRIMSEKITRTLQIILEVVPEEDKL
T1 sequence (P08195 1-529 partner): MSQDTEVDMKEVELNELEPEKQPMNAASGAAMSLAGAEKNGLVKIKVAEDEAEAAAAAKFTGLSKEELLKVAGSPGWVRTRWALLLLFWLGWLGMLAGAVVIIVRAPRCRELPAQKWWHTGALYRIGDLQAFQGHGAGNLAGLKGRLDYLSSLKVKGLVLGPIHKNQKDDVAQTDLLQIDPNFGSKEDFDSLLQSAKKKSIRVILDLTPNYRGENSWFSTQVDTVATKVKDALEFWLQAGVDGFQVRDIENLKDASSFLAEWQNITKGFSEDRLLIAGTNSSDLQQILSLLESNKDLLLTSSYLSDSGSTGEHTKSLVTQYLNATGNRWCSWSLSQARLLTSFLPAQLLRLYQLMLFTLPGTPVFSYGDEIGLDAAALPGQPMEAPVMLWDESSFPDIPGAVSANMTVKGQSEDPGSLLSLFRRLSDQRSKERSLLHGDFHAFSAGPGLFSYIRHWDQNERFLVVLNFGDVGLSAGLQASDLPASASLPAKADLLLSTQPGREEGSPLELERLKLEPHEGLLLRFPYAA
Kind of assay: [^14C]L-Cystine uptake assay. The class given is cell-based. On the set-up: endogenous in cells; host or cells: H4 cells. The conditions noted are these: H4 cells, sodium-free HEPES buffer, 0.5 μM L-[14C]Cystine and 4.5 μM L-Cystine, 1 hour at 37° C.; read-out: pIC50 [^14C] L-Cystine uptake assay (converted). The essentials:
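Compound effect is given as pIC50, taken between controls of 1% DMSO and 50 μM Erastin. Human H4 cells were pretreated 15 min with compound in sodium-free buffer, then took up 0.5 μM [14C]cystine with 4.5 μM cold cystine for 1 hour at 37° C, read by scintillation proximity counting.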

The target in assay [2] is T1, system Xc^−. Kind of assay: Cystine-induced glutamate release assay. It is filed as cell-based. On the set-up: endogenous in cells; host or cells: H4 cells. The conditions noted are these: H4 cells, sodium-free HEPES buffer, 50 μM L-Cystine, 2 hours, Amplex Red glutamate readout; read-out: pIC50 Cystine-induced glutamate release assay (converted). The essentials:
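IC50 (reported as pIC50) normalized to DMSO 1% and Erastin 50 μM controls, from Amplex Red fluorescence of glutamate exported into supernatant. H4 cells were washed into sodium-free buffer to exclude EAAT transport, then given compound with 50 μM L-cystine for 2 h in the incubator.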

20 compounds from patent US20260217708A1, “FUSED BENZAZEPINE DERIVATIVES FOR USE IN THE TREATMENT OF CANCER AND EPILEPSY” (UCB BIOPHARMA SRL, priority 2023, published 2026) can be followed below.

The structures appear in SMILES notation.

In the case of `O=C(CN1C(=O)Cc2ncccc2-c2c(F)cncc21)Nc1ccc(C(F)(F)F)cc1` [#78, 2-(3-fluoro-9-oxo-5,8,12-triazatricyclo[9.4.0.0^2,7]pentadeca-1(11),2(7),3,5,12,14-hexaen-8-yl)-N-[4-(trifluoromethyl)-phenyl]acetamide], the IC50 at system Xc^− [1] and at system Xc^− [2] was 100 to 501 nM each time.
For `COc1nc(C)cc2c1-c1cccnc1CC(=O)N2CC(=O)Nc1ccc(C(F)(F)F)nc1` [#79, 2-(3-methoxy-5-methyl-9-oxo-4,8,12-triazatri-cyclo[9.4.0.0^2,7]penta-deca-1(11),2,4,6,12,14-hexaen-8-yl)-N-[6-(tri-fluoromethyl)-3-pyridyl] acetamide], the IC50 at system Xc^− [1] and on system Xc^− [2] was 100 to 501 nM in each case.
Take `COc1nc(C)cc2c1-c1cccnc1CC(=O)N2CC(=O)Nc1ccc(C2CC2)cc1` [#80, N-(4-cyclopropylphen-yl)-2-(3-methoxy-5-methyl-9-oxo-4,8,12-triazatricyclo[9.4.0.0^2.7]pentadeca-1(11),2(7),3,5,12,14-hexaen-8-yl)-acetamide]: the IC50 on system Xc^− [1] and on system Xc^− [2] was 15.8 to 39.8 nM each time.
With `COc1nc(C)cc2c1-c1cccnc1C(C)C(=O)N2CC(=O)Nc1ccc(C(F)(F)F)cc1` (stereo not shown) [#81, 2-(3-methoxy-5,10-dimethyl-9-oxo-4,8,12-triazatricyclo[9.4.0.0^2,7]pentadeca-1(11),2,4,6, 12,14-hexaen-8-yl)-N-[4-(trifluoromethyl)-phenyl]acetamide], the IC50 on system Xc^− [1] is less than 15.8 nM; at system Xc^− [2], 15.8 to 39.8 nM.
The matching figures for `CCOc1nc(C)cc2c1-c1cccnc1CC(=O)N2CC(=O)Nc1ccc(C(F)(F)F)cc1` [#82, 2-(3-ethoxy-5-methyl-9-oxo-4,8,12-triazatri-cyclo[9.4.0.0^2,7]penta-deca-1(15),2(7),3,5,11, 13-hexaen-8-yl)-N-[4-(trifluoromethyl)phenyl] acetamide]: 39.8 to 100 nM and 100 to 501 nM.
The like results for `COc1nc(C)cc2c1-c1cccnc1CC(=O)N2CC(=O)Nc1ccc(C(F)F)cc1` [#83, N-[4-(difluoromethyl)-phenyl]-2-(3-methoxy-5-methyl-9-oxo-4,8,12-triazatricyclo[9.4.0.0^2,7]pentadeca-1(11),2,4,6, 12,14-hexaen-8-yl)acet-amide] were, in that order, less than 15.8 nM and less than 15.8 nM.
Turning to `Cc1cc2c(c(F)n1)-c1cccnc1C(C)C(=O)N2CC(=O)Nc1ccc(C(F)(F)F)cc1` (stereo not shown) [#84, 2-(3-fluoro-5,10-dimethyl-9-oxo-4,8,12-triazatricyclo[9.4.0.0^2,7]pentadeca-1(11),2(7),3,5,12,14-hexaen-8-yl)-N-[4-(trifluoromethyl)phenyl]acetamide], the IC50 on system Xc^− [1] is less than 15.8 nM; at system Xc^− [2], 15.8 to 39.8 nM.
Regarding `Cc1cc2c(c(F)n1)-c1ccc(Cl)cc1CC(=O)N2CC(=O)Nc1ccc(C(F)(F)F)cc1` [#85, 2-(9-chloro-1-fluoro-3-methyl-6-oxo-7H-pyrido[4,3-d][3]benzazepin-5-yl)-N-[4-(trifluoromethyl)phenyl]acetamide], the IC50 on system Xc^− [1] is 100 to 501 nM; on system Xc^− [2], 39.8 to 100 nM.
Take `Cc1cc2c(c(F)n1)-c1ccc(F)cc1CC(=O)N2CC(=O)Nc1ccc(C(F)(F)F)cc1` [#86, 2-(1,9-difluoro-3-methyl-6-oxo-7H-pyrido[4,3-d][3]benzazepin-5-yl)-N-[4-(trifluoromethyl)phenyl]acetamide]: the IC50 is 15.8 to 39.8 nM at system Xc^− [1] and 39.8 to 100 nM on system Xc^− [2].
The like results for `Cc1cc2c(c(F)n1)-c1c(F)cccc1CC(=O)N2CC(=O)Nc1ccc(C(F)(F)F)cc1` [#87, 2-(1,11-difluoro-3-methyl-6-oxo-7H-pyrido[4,3-d][3]benzazepin-5-yl)-N-[4-(trifluoromethyl)phenyl]acetamide] were, in that order, 39.8 to 100 nM and 100 to 501 nM.
The like results for `Cc1cc2c(c(F)n1)-c1cccc(C#N)c1CC(=O)N2CC(=O)Nc1ccc(C(F)(F)F)cc1` [#88, 2-(8-cyano-1-fluoro-3-methyl-6-oxo-7H-pyrido[4,3-d][3]benzazepin-5-yl)-N-[4-(trifluoromethyl)phenyl]acetamide] were, in that order, 39.8 to 100 nM and 39.8 to 100 nM.
Take `Cc1cc2c(c(F)n1)-c1cccnc1C(C)(F)C(=O)N2CC(=O)Nc1ccc(C(F)(F)F)cc1` (stereo not shown) [#89, 2-(3,10-difluoro-5,10-dimethyl-9-oxo-4,8,12-triazatricyclo[9.4.0.0^2,7]pentadeca-1(11),2(7),3,5,12,14-hexaen-8-yl)-N-[4-(trifluoromethyl)phenyl]acetamide]: the IC50 on system Xc^− [1] is 100 to 501 nM; at system Xc^− [2], 39.8 to 100 nM.
The matching figures for `Cc1cc2c(c(F)n1)-c1cccnc1C(C)C(=O)N2CC(=O)Nc1ccc(Cl)c(F)c1` (stereo not shown) [#90, N-(4-chloro-3-fluoro-phenyl)-2-(3-fluoro-5,10-dimethyl-9-oxo-4,8,12-triazatricyclo[9.4.0.0^2,7]pentadeca-1(11),2(7),3,5,12,14-hexaen-8-yl)acetamide]: less than 15.8 nM and 15.8 to 39.8 nM.
Regarding `Cc1cc2c(cn1)-c1cccnc1C(C)C(=O)N2CC(=O)Nc1ccc(C(F)(F)F)cc1` (stereo not shown) [#91, 2-(5,10-dimethyl-9-oxo-4,8,12-triazatricyclo[9.4.0.0^2,7]pentadeca-1(11),2(7),3,5,12,14-hexaen-8-yl)-N-[4-(trifluoromethyl)phenyl]acetamide], the IC50 at system Xc^− [1] was 15.8 to 39.8 nM; on system Xc^− [2], 39.8 to 100 nM.
The like results for `[2H]C([2H])([2H])C1C(=O)N(CC(=O)Nc2ccc(C(F)(F)F)cc2)c2cc(C)nc(F)c2-c2cccnc21` (stereo not shown) [#92, 2-[3-fluoro-5-methyl-9-oxo-10-(trideuteriomethyl)-4,8,12-triazatricyclo[9.4.0.0^2,7]pentadeca-1(15),2(7),3,5,11,13-hexaen-8-yl]-N-[4-(trifluoromethyl)phenyl]acetamide] were, in that order, less than 15.8 nM and 39.8 to 100 nM.
For `Cc1cc2c(c(F)n1)-c1ccc(C)nc1C(C)C(=O)N2CC(=O)Nc1ccc(C(F)(F)F)cc1` (stereo not shown) [#93, 2-(3-fluoro-5,10,13-trimethyl-9-oxo-4,8,12-triazatricyclo[9.4.0.0^2,7]pentadeca-1(11),2(7),3,5,12,14-hexaen-8-yl)-N-[4-(trifluoromethyl)phenyl]acetamide], the IC50 at system Xc^− [1] is 15.8 to 39.8 nM; at system Xc^− [2], 39.8 to 100 nM.
The like results for `Cc1cc2c(c(F)n1)-c1cccnc1C(O)C(=O)N2CC(=O)Nc1ccc(C(F)(F)F)cc1` (stereo not shown) [#94, 2-(3-fluoro-10-hydroxy-5-methyl-9-oxo-4,8,12-triazatricyclo[9.4.0.0^2,7]pentadeca-1(15),2(7),3,5,11,13-hexaen-8-yl)-N-[4-(trifluoromethyl)phenyl]acetamide] were, in that order, 39.8 to 100 nM and 39.8 to 100 nM.
Consider `Cc1cc2c(c(F)n1)-c1ccccc1C(O)C(=O)N2CC(=O)Nc1ccc(C(F)(F)F)cc1` (stereo not shown) [#95, 2-(1-fluoro-7-hydroxy-3-methyl-6-oxo-7H-pyrido[4,3-d][3]benzazepin-5-yl)-N-[4-(trifluoromethyl)phenyl]acetamide], for which the IC50 on system Xc^− [1] is 39.8 to 100 nM; at system Xc^− [2], 15.8 to 39.8 nM.
The matching figures for `COc1nc(C)cc2c1-c1cccnc1C(O)C(=O)N2CC(=O)Nc1ccc(C(F)(F)F)cc1` (stereo not shown) [#96, 2-(10-hydroxy-3-methoxy-5-methyl-9-oxo-4,8,12-triazatricyclo[9.4.0.0^2,7]pentadeca-1(11),2,4,6,12,14-hexaen-8-yl)-N-[4-(trifluoromethyl)phenyl]acetamide]: 15.8 to 39.8 nM and 15.8 to 39.8 nM.
The like results for `Cc1cc2c(c(Cl)n1)-c1cccnc1CC(=O)N2CC(=O)Nc1ccc(C(F)(F)F)cc1` [#97, 2-(3-chloro-5-methyl-9-oxo-4,8,12-triazatricyclo[9.4.0.0^2,7]pentadeca-1(11),2(7),3,5,12,14-hexaen-8-yl)-N-[4-(trifluoromethyl)phenyl]acetamide] were, in that order, less than 15.8 nM and 39.8 to 100 nM.
